This is an account of results in patent publication US20070128217A1 (priority 2003, published 2007).

The subject of assay [1] is antibodies in sera from SARS patients (sera 1a, 1b, 2, 6, 37, 62, London, SARS-yellow, SARS-green). It is filed as binding, human. Also on record: Binding of serum 6 to linear peptides of protein X1 of SARS-CoV Urbani / Binding of serum 37 to linear peptides of protein X1 of SARS-CoV Urbani / Binding of serum 6 to looped/cyclic peptide (PEPSCAN-ELISA) / Binding of serum 37 to looped/cyclic peptide (PEPSCAN-ELISA) / Binding of serum 37 to looped/cyclic peptides of protein X1 of SARS-CoV Urbani / Binding of serum 6 to linear peptides of protein X2 / Binding of serum 37 to linear peptides of protein X2 / Binding of serum 37 to looped/cyclic peptides of protein X2 of SARS-CoV Urbani / Binding of serum 6 to linear peptides of protein M of SARS-CoV Urbani / Binding of serum 37 to linear peptides of protein M of SARS-CoV Urbani / Binding of serum 6 to looped/cyclic peptides of protein M of SARS-CoV Urbani / Binding of serum 37 to looped/cyclic peptides of protein M of SARS-CoV Urbani / Binding of serum 6 to linear peptides of protein X3 of SARS-CoV Urbani / Binding of serum 37 to linear peptides of protein X3 of SARS-CoV Urbani / Binding of serum 37 to looped/cyclic peptides of protein X3 of SARS-CoV Urbani / Binding of serum 6 to linear peptides of protein X4 of SARS-CoV Urbani / Binding of serum 37 to linear peptides of protein X4 of SARS-CoV Urbani / Binding of serum 37 to looped/cyclic peptides of protein X4 of SARS-CoV Urbani / Binding of serum 6 to linear peptides of protein X5 of SARS-CoV Urbani / Binding of serum 37 to linear peptides of protein X5 of SARS-CoV Urbani / Binding of serum 37 to looped/cyclic peptides of protein X5 of SARS-CoV Urbani / Binding of serum 6 to linear peptides of protein N of SARS-CoV Urbani / Binding of serum 37 to linear peptides of protein N of SARS-CoV Urbani / Binding of serum 6 to linear peptide (PEPSCAN-ELISA) / Binding of serum 1a to looped/cyclic peptides of protein N of SARS-CoV Urbani / Binding of serum 1b to looped/cyclic peptides of protein N of SARS-CoV Urbani / Binding of serum 2 to looped/cyclic peptides of protein N of SARS-CoV Urbani / Binding of serum 6 to looped/cyclic peptides of protein N of SARS-CoV Urbani / Binding of serum 37 to looped/cyclic peptides of protein N of SARS-CoV Urbani / Binding of serum 62 to looped/cyclic peptides of protein N of SARS-CoV Urbani / Binding of serum London to looped/cyclic peptides of protein N of SARS-CoV Urbani / Binding of serum SARS-green to looped/cyclic peptides of protein N of SARS-CoV Urbani: unit not given here.

For assay [2], the system named is control sera (pooled serum of ten healthy LUMC hospital workers; commercial negative donor pooled serum from the Dutch bloodbank). It is filed as binding, human. The arrangement: Binding of Control serum LUMC to linear peptides / Binding of Control serum Blood-bank to linear peptides / Binding of Control serum LUMC to looped peptides / Binding of Control Serum Blood-Bank to Looped peptides / Binding of Control serum LUMC to linear peptides of the protein M of SARS-CoV Urbani / Binding of Control serum Blood-bank to linear peptides of the protein M of SARS-CoV Urbani / Binding of Control serum LUMC to looped peptides of the protein M of SARS-CoV Urbani / Binding of Control Serum Blood-Bank to Looped peptides of the protein M of SARS-CoV Urbani: unit not given here.

Assay [3] concerns rabbit serum obtained by immunizing a rabbit with the SARS-CoV strain Frankfurt 1. It is filed as binding. Also on record: Binding of a rabbit serum to linear peptides / Binding of a rabbit serum to looped peptides / Rabbit serum linear peptides / Rabbit serum looped peptides / Binding of a rabbit serum to linear peptides of protein N of SARS-CoV Urbani (Rabbit serum linear peptides) / Binding of a rabbit serum to looped/cyclic peptides of protein N of SARS-CoV Urbani (Rabbit serum looped peptides): unit not given here.

In assay [4] the test system is recombinant human anti-SARS-CoV antibody 03-018. It is filed as binding. Also on record: Binding of antibody 03-018 to linear peptides of the N protein of SARS-CoV Urbani / Binding of antibody 03-018 to looped/cyclic peptides of the N protein of SARS-CoV Urbani: unit not given here.

Take QIAQFAPSASAFFGM: in assay [1], the “Binding of serum 1a to linear peptides of protein N of SARS-CoV Urbani” value was 0.3, the “Binding of serum 1a to looped/cyclic peptides of protein N of SARS-CoV Urbani” value is 0.5, the “Binding of serum 1b to linear peptides of protein N of SARS-CoV Urbani” value was determined as 0.1 and the “Binding of serum 1b to looped/cyclic peptides of protein N of SARS-CoV Urbani” value is reported as 0.3. In assay [1], the “Binding of serum 2 to linear peptides of protein N of SARS-CoV Urbani” value turned out to be 0.2, the “Binding of serum 2 to looped/cyclic peptides of protein N of SARS-CoV Urbani” value is 0.5, the “Binding of serum 6 to linear peptides of protein N of SARS-CoV Urbani” value came out at 0.2 and the “Binding of serum 6 to looped/cyclic peptides of protein N of SARS-CoV Urbani” value is 0.3. In assay [1], the “Binding of serum 37 to linear peptides of protein N of SARS-CoV Urbani” value stood at 0.7, the “Binding of serum 37 to looped/cyclic peptides of protein N of SARS-CoV Urbani” value is recorded as 0.8, the “Binding of serum 62 to linear peptides of protein N of SARS-CoV Urbani” value came out at 0.6 and the “Binding of serum 62 to looped/cyclic peptides of protein N of SARS-CoV Urbani” value is 0.8. In assay [1], the “Binding of serum London to linear peptides of protein N of SARS-CoV Urbani” value was 0.5, the “Binding of serum London to looped/cyclic peptides of protein N of SARS-CoV Urbani” value was found to be 0.5, the “Binding of serum SARS-green to linear peptides of protein N of SARS-CoV Urbani” value is listed as 0.7 and the “Binding of serum SARS-green to looped/cyclic peptides of protein N of SARS-CoV Urbani” value was determined as 0.5. Further, in assay [1], the “Binding of serum SARS-yellow to linear peptides of protein N of SARS-CoV Urbani” value was found to be 0.7 and the “Binding of serum SARS-yellow to looped/cyclic peptides of protein N of SARS-CoV Urbani” value is given as 0.5. In assay [2], the “Control Serum Blood-Bank Looped peptides” value turned out to be 0.9, the “Control serum Blood-bank linear peptides” value is recorded as 0.9, the “Control serum LUMC linear peptides” value was determined as 0.7 and the “Control serum LUMC looped peptides” value amounted to 0.7. In assay [3], the “Binding of a rabbit serum to linear peptides of protein N of SARS-CoV Urbani (Rabbit serum linear peptides)” value (from here on “Binding … (Rabbit serum linear peptides)”) turned out to be 0.1 and the “Binding of a rabbit serum to looped/cyclic peptides of protein N of SARS-CoV Urbani (Rabbit serum looped peptides)” value was found to be 0.5. In assay [4], the “Binding of antibody 03-018 to linear peptides of the N protein of SARS-CoV Urbani” value is on record as 0.1 and the “Binding of antibody 03-018 to looped/cyclic peptides of the N protein of SARS-CoV Urbani” value turned out to be 0.3.

QKKQPTVTLLPAADM: in assay [1], the “Binding of serum 1a to linear peptides of protein N of SARS-CoV Urbani” value came to 0.3, the “Binding of serum 1b to linear peptides of protein N of SARS-CoV Urbani” value was 0.2, the “Binding of serum 2 to linear peptides of protein N of SARS-CoV Urbani” value was 0.2 and the “Binding of serum 6 to linear peptides of protein N of SARS-CoV Urbani” value is 0.2. For the same sequence, in assay [1], the “Binding of serum 37 to linear peptides of protein N of SARS-CoV Urbani” value was 0.7, the “Binding of serum 62 to linear peptides of protein N of SARS-CoV Urbani” value is 0.6, the “Binding of serum London to linear peptides of protein N of SARS-CoV Urbani” value stood at 0.6 and the “Binding of serum SARS-green to linear peptides of protein N of SARS-CoV Urbani” value was 0.4. In addition, in assay [1], the “Binding of serum SARS-yellow to linear peptides of protein N of SARS-CoV Urbani” value is 0.5; the “Recognition of the peptide by sera of SARS-CoV infected individuals, and form (linear, looped/cyclic) in which it is recognized” value is on record as “recognized in looped/cyclic form”. Further, in assay [2], the “Control Serum Blood-Bank Looped peptides” value was found to be 0.9, the “Control serum Blood-bank linear peptides” value is on record as 0.7, the “Control serum LUMC linear peptides” value is 0.6 and the “Control serum LUMC looped peptides” value was found to be 0.7. Further, in assay [3], the “Binding … (Rabbit serum linear peptides)” value was found to be 0.2 and the “Binding of a rabbit serum to looped/cyclic peptides of protein N of SARS-CoV Urbani (Rabbit serum looped peptides)” value turned out to be 0.7. In addition, in assay [4], the “Binding of antibody 03-018 to linear peptides of the N protein of SARS-CoV Urbani” value came to 0.1 and the “Binding of antibody 03-018 to looped/cyclic peptides of the N protein of SARS-CoV Urbani” value worked out at 0.3.

For the sequence QLESKVSGKGQQQQG, in assay [1], the “Binding of serum 1a to linear peptide (PEPSCAN-ELISA)” value came to 0.3, the “Binding of serum 1a to looped/cyclic peptides of protein N of SARS-CoV Urbani” value was 0.5, the “Binding of serum 1b to linear peptide (PEPSCAN-ELISA)” value turned out to be 0.1 and the “Binding of serum 1b to looped/cyclic peptides of protein N of SARS-CoV Urbani” value stood at 0.4. In assay [1], the “Binding of serum 2 to linear peptide (PEPSCAN-ELISA)” value came to 0.3, the “Binding of serum 2 to looped/cyclic peptides of protein N of SARS-CoV Urbani” value was found to be 0.7, the “Binding of serum 6 to linear peptide (PEPSCAN-ELISA)” value is recorded as 0.2 and the “Binding of serum 6 to looped/cyclic peptides of protein N of SARS-CoV Urbani” value turned out to be 0.5. In assay [1], the “Binding of serum 37 to linear peptide (PEPSCAN-ELISA)” value was 0.7, the “Binding of serum 37 to looped/cyclic peptides of protein N of SARS-CoV Urbani” value is given as 0.6, the “Binding of serum 62 to linear peptide (PEPSCAN-ELISA)” value is listed as 0.8 and the “Binding of serum 62 to looped/cyclic peptides of protein N of SARS-CoV Urbani” value came to 0.7. Besides, in assay [1], the “Binding of serum London to linear peptide (PEPSCAN-ELISA)” value came out at 0.6, the “Binding of serum London to looped/cyclic peptides of protein N of SARS-CoV Urbani” value turned out to be 0.7, the “Binding of serum SARS-green to linear peptide (PEPSCAN-ELISA)” value was 0.5 and the “Binding of serum SARS-green to looped/cyclic peptides of protein N of SARS-CoV Urbani” value was found to be 0.7. For the same sequence, in assay [1], the “Binding of serum SARS-yellow to linear peptide (PEPSCAN-ELISA)” value stood at 0.8 and the “Binding of serum SARS-yellow to looped/cyclic peptides of protein N of SARS-CoV Urbani” value came to 1.1. For the same sequence, in assay [2], the “Binding of Control Serum Blood-Bank to Looped peptides” value is 1.0, the “Binding of Control serum Blood-bank to linear peptides” value is recorded as 0.8, the “Binding of Control serum LUMC to linear peptides” value amounted to 0.8 and the “Binding of Control serum LUMC to looped peptides” value stood at 0.9. In addition, in assay [3], the “Binding … (Rabbit serum linear peptides)” value worked out at 0.1 and the “Binding of a rabbit serum to looped/cyclic peptides of protein N of SARS-CoV Urbani (Rabbit serum looped peptides)” value is 0.4. Also, in assay [4], the “Binding of antibody 03-018 to linear peptides of the N protein of SARS-CoV Urbani” value is given as 0.1 and the “Binding of antibody 03-018 to looped/cyclic peptides of the N protein of SARS-CoV Urbani” value was 0.3.

As for QPLPQRQKKQPTVTL, in assay [1], the “Binding of serum 1a to linear peptides of protein N of SARS-CoV Urbani” value is 0.2, the “Binding of serum 1b to linear peptides of protein N of SARS-CoV Urbani” value is listed as 0.2, the “Binding of serum 2 to linear peptides of protein N of SARS-CoV Urbani” value was 0.3 and the “Binding of serum 6 to linear peptides of protein N of SARS-CoV Urbani” value is reported as 0.4. For the same sequence, in assay [1], the “Binding of serum 37 to linear peptides of protein N of SARS-CoV Urbani” value is given as 0.6, the “Binding of serum 62 to linear peptides of protein N of SARS-CoV Urbani” value came out at 0.6, the “Binding of serum London to linear peptides of protein N of SARS-CoV Urbani” value is reported as 1.3 and the “Binding of serum SARS-green to linear peptides of protein N of SARS-CoV Urbani” value came out at 0.2. In assay [1], the “Binding of serum SARS-yellow to linear peptides of protein N of SARS-CoV Urbani” value was 1.3; the “Recognition of the peptide by sera of SARS-CoV infected individuals, and form (linear, looped/cyclic) in which it is recognized” value is “recognized in looped/cyclic form”. Moreover, in assay [2], the “Control Serum Blood-Bank Looped peptides” value is given as 1.0, the “Control serum Blood-bank linear peptides” value is recorded as 0.6, the “Control serum LUMC linear peptides” value was 0.5 and the “Control serum LUMC looped peptides” value was determined as 0.9. Moreover, in assay [3], the “Binding … (Rabbit serum linear peptides)” value was determined as 0.1 and the “Binding of a rabbit serum to looped/cyclic peptides of protein N of SARS-CoV Urbani (Rabbit serum looped peptides)” value is 0.7. In assay [4], the “Binding of antibody 03-018 to linear peptides of the N protein of SARS-CoV Urbani” value is 0.1 and the “Binding of antibody 03-018 to looped/cyclic peptides of the N protein of SARS-CoV Urbani” value is 0.3.
